Source: ChEMBL document CHEMBL4507285, “Data for DCP probe MRL-SYKi” (2021)

Assays:
[1] = target: Non-receptor tyrosine-protein kinase TYK2 (Homo sapiens) (UniProt P29597); details: Compound concentration 100.0 nM
[2] = target: Non-receptor tyrosine-protein kinase TNK1 (Homo sapiens) (UniProt Q13470); details: Compound concentration 100.0 nM
[3] = target: Cyclin-dependent kinase 18 (Homo sapiens) (UniProt Q07002); details: Compound concentration 100.0 nM
[4] = target: Serine/threonine-protein kinase Chk1 (Homo sapiens) (UniProt O14757); details: Compound concentration 100.0 nM
[5] = target: cAMP-dependent protein kinase catalytic subunit PRKX (Homo sapiens) (UniProt P51817); details: Compound concentration 100.0 nM
[6] = target: Muscarinic acetylcholine receptor M5 (Homo sapiens) (UniProt P08912); details: Compound concentration 10.0 uM
[7] = target: Myosin-IIIb (Homo sapiens) (UniProt Q8WXR4); details: Compound concentration 100.0 nM
Myosin-IIIb (Homo sapiens), sequence (Q8WXR4 whole entry): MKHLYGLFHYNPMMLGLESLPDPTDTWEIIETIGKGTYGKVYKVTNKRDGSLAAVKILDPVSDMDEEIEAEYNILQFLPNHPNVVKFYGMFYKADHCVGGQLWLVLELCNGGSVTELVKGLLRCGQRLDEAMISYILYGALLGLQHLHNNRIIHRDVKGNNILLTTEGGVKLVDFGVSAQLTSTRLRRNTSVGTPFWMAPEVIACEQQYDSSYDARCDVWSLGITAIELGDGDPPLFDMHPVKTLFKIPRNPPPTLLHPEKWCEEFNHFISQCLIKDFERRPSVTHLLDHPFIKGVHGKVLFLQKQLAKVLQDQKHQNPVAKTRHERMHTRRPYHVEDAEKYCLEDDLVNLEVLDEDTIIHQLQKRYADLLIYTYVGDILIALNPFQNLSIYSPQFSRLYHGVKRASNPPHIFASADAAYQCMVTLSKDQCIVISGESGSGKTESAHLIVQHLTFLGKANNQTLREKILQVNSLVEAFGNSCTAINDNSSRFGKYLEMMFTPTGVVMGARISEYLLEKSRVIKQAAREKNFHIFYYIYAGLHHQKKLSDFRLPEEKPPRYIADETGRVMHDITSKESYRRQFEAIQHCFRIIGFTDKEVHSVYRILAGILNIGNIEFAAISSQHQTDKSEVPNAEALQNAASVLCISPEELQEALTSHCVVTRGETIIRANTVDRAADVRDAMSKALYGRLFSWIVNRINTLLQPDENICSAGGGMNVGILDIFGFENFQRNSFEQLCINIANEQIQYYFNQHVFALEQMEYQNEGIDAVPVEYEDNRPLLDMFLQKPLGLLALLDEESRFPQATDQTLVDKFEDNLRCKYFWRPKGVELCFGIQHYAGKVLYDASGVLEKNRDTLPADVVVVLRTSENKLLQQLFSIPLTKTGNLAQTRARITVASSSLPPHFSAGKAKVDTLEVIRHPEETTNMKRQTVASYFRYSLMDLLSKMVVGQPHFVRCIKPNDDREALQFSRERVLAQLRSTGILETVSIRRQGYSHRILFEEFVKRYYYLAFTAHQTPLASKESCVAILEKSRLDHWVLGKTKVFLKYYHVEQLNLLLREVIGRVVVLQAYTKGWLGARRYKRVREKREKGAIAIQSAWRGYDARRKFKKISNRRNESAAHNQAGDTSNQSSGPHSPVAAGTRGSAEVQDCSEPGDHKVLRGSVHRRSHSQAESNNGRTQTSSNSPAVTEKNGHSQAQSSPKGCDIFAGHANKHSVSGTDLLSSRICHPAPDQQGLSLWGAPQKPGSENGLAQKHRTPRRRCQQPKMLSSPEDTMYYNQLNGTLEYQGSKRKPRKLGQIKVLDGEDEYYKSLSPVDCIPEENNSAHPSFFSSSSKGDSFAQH

[8] = target: Macrophage-stimulating protein receptor (Homo sapiens) (UniProt Q04912); details: Compound concentration 100.0 nM
[9] = target: Casein kinase I isoform gamma-3 (Homo sapiens) (UniProt Q9Y6M4); details: Compound concentration 100.0 nM
[10] = target: Insulin-like growth factor 1 receptor (Homo sapiens) (UniProt P08069); details: Compound concentration 100.0 nM
[11] = target: Activated CDC42 kinase 1 (Homo sapiens) (UniProt Q07912); details: Compound concentration 100.0 nM
[12] = target: Serine/threonine-protein kinase OSR1 (Homo sapiens) (UniProt O95747); details: Compound concentration 100.0 nM
[13] = target: Mitogen-activated protein kinase kinase kinase 15 (Homo sapiens) (UniProt Q6ZN16); details: Compound concentration 100.0 nM
[14] = target: Serine/threonine-protein kinase mTOR (Homo sapiens) (UniProt P42345); details: Compound concentration 100.0 nM
[15] = target: Serine/threonine-protein kinase tousled-like 1 (Homo sapiens) (UniProt Q9UKI8); details: Compound concentration 100.0 nM
[16] = target: Citron Rho-interacting kinase (Homo sapiens) (UniProt O14578); details: Compound concentration 100.0 nM
[17] = target: Tyrosine-protein kinase Lyn (Homo sapiens) (UniProt P07948); details: Compound concentration 100.0 nM
[18] = target: Mitogen-activated protein kinase kinase kinase 19 (Homo sapiens) (UniProt Q56UN5); details: Compound concentration 100.0 nM
[19] = target: Serine/threonine-protein kinase pim-2 (Homo sapiens) (UniProt Q9P1W9); details: Compound concentration 100.0 nM
[20] = target: Serine/threonine-protein kinase STK11 (Homo sapiens) (UniProt Q15831); details: Compound concentration 100.0 nM
[21] = target: Inhibitor of nuclear factor kappa-B kinase subunit beta (Homo sapiens) (UniProt O14920); details: Compound concentration 100.0 nM
[22] = tested on: Receptor-type tyrosine-protein kinase FLT3 (Homo sapiens), P36888 [UNDEFINED MUTATION]; details: Compound concentration 100.0 nM
[23] = target: Mitogen-activated protein kinase kinase kinase 11 (Homo sapiens) (UniProt Q16584); details: Compound concentration 100.0 nM
[24] = tested on: Tyrosine-protein kinase ABL1 (Homo sapiens), P00519 [H396P]; details: Compound concentration 100.0 nM
[25] = target: Mitogen-activated protein kinase 14 (Homo sapiens) (UniProt Q16539); details: Compound concentration 100.0 nM
[26] = target: High affinity nerve growth factor receptor (Homo sapiens, UniProt P04629); details: Compound concentration 100.0 nM
[27] = target: Mast/stem cell growth factor receptor Kit (Homo sapiens) (UniProt P10721); details: Compound concentration 100.0 nM
Mast/stem cell growth factor receptor Kit (Homo sapiens), sequence (P10721 whole entry): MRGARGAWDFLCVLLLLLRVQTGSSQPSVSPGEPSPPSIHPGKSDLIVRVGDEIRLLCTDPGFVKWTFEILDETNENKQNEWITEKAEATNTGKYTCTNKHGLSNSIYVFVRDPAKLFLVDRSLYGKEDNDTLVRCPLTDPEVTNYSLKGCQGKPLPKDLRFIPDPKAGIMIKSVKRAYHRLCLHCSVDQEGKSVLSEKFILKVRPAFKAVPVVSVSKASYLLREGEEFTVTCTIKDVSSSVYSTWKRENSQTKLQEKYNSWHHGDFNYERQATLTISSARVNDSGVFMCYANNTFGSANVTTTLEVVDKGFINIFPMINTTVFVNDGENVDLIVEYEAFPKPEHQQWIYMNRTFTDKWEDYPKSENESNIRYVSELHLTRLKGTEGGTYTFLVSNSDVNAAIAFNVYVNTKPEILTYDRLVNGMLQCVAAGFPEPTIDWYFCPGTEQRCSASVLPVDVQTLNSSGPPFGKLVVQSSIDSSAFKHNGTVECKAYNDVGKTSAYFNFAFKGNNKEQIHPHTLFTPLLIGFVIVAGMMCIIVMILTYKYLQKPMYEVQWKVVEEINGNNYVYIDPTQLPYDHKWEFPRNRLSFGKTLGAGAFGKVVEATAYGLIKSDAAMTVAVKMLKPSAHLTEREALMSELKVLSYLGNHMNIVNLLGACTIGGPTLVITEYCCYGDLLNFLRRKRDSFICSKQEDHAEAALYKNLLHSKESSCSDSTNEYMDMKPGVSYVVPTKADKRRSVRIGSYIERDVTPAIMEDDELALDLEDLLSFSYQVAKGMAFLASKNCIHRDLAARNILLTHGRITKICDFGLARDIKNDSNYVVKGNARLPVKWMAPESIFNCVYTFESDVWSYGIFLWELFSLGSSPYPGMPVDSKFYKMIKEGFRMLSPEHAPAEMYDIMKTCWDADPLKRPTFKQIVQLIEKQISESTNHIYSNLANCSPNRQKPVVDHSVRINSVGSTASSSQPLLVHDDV

[28] = target: Serine/threonine-protein kinase WNK3 (Homo sapiens) (UniProt Q9BYP7); details: Compound concentration 100.0 nM
[29] = target: Serine/threonine-protein kinase LATS1 (Homo sapiens) (UniProt O95835); details: Compound concentration 100.0 nM
[30] = target: Serine/threonine-protein kinase RIO1 (Homo sapiens) (UniProt Q9BRS2); details: Compound concentration 100.0 nM
Serine/threonine-protein kinase RIO1 (Homo sapiens), sequence (Q9BRS2 whole entry): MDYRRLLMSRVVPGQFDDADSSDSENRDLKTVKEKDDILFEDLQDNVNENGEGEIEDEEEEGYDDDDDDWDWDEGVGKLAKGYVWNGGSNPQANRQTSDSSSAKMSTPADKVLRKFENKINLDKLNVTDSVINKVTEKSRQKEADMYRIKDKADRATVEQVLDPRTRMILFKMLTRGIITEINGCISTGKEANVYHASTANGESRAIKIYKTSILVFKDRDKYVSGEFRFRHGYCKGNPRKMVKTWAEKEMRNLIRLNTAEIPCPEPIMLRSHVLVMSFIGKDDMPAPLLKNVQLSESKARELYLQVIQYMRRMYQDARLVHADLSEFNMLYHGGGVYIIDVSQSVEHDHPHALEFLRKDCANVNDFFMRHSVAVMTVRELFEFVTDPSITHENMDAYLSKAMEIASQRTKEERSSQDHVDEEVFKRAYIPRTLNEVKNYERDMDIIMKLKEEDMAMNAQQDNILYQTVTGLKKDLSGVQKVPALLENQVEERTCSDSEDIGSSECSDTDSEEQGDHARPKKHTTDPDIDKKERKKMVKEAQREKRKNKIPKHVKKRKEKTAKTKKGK

[31] = target: Homeodomain-interacting protein kinase 2 (Homo sapiens) (UniProt Q9H2X6); details: Compound concentration 100.0 nM
[32] = target: Calcium/calmodulin-dependent protein kinase type IV (Homo sapiens) (UniProt Q16566); details: Compound concentration 100.0 nM
[33] = target: Ribosomal protein S6 kinase alpha-4 (Homo sapiens) (UniProt O75676); details: Compound concentration 100.0 nM
[34] = target: 5-hydroxytryptamine receptor 1D (Homo sapiens) (UniProt P28221); details: Compound concentration 10.0 uM
[35] = target: Hormonally up-regulated neu tumor-associated kinase (Homo sapiens) (UniProt P57058); details: Compound concentration 100.0 nM
[36] = tested on: Mast/stem cell growth factor receptor Kit (Homo sapiens), P10721 [V559D]; details: Compound concentration 100.0 nM
Mast/stem cell growth factor receptor Kit (Homo sapiens), P10721 [V559D], sequence (P10721 whole entry V559D): as the sequence (P10721 whole entry) above, with V559D counted along it

[37] = target: Ephrin type-A receptor 5 (Homo sapiens) (UniProt P54756); details: Compound concentration 100.0 nM
[38] = target: Bone morphogenetic protein receptor type-1A (Homo sapiens) (UniProt P36894); details: Compound concentration 100.0 nM
Bone morphogenetic protein receptor type-1A (Homo sapiens), sequence (P36894 whole entry): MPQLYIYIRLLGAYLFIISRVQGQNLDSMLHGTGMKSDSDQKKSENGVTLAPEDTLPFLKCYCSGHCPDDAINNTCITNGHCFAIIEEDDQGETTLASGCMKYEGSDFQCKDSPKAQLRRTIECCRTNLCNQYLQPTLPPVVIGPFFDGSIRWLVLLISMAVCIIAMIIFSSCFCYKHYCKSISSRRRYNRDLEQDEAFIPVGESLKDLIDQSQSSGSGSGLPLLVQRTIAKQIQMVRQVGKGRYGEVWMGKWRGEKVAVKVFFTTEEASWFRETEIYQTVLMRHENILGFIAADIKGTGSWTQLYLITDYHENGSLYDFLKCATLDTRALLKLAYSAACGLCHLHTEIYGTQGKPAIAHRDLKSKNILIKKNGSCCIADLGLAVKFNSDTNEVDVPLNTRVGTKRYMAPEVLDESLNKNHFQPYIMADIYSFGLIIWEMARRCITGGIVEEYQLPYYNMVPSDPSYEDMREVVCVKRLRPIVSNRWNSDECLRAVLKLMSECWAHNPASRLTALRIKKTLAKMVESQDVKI

[39] = target: Mitogen-activated protein kinase kinase kinase kinase 1 (Homo sapiens) (UniProt Q92918); details: Compound concentration 100.0 nM
[40] = target: Interferon-induced, double-stranded RNA-activated protein kinase (Homo sapiens) (UniProt P19525); details: Compound concentration 100.0 nM
[41] = target: Rho-associated protein kinase 2 (Homo sapiens) (UniProt O75116); details: Compound concentration 100.0 nM
Rho-associated protein kinase 2 (Homo sapiens), sequence (O75116 whole entry, looked up): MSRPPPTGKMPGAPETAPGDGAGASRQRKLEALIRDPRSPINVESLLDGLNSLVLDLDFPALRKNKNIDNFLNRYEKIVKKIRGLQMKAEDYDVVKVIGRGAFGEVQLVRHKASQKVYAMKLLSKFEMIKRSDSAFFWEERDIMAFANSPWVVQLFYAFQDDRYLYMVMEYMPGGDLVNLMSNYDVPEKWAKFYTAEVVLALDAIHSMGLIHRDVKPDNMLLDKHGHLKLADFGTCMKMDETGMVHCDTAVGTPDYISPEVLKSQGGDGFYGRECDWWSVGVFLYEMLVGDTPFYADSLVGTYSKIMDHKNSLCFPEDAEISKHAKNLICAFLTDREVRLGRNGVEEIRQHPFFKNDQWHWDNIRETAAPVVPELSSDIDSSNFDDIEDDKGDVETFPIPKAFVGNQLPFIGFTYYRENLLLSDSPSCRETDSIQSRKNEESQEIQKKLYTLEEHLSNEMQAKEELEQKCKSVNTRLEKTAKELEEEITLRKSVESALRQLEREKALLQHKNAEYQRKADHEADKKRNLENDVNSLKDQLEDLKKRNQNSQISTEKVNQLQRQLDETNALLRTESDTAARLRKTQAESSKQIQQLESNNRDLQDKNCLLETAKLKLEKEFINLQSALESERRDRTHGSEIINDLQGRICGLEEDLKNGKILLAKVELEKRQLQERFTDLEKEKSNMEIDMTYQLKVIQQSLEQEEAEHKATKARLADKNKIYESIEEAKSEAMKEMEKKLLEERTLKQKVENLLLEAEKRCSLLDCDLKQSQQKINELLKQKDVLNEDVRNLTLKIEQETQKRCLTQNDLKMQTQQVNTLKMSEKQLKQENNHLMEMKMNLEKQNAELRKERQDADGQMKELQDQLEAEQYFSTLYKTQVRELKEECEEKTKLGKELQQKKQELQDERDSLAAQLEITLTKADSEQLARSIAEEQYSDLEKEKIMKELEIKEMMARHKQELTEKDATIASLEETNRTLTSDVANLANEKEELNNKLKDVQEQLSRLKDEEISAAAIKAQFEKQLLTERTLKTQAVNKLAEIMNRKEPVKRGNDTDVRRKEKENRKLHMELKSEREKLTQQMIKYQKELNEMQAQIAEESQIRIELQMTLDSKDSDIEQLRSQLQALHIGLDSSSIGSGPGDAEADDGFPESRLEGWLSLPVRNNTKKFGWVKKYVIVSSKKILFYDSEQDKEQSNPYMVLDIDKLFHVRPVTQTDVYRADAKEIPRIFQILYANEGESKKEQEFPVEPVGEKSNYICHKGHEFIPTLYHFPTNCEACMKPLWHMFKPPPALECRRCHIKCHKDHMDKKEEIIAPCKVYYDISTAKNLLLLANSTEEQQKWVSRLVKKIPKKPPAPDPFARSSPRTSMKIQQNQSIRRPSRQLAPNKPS

[42] = target: 5'-AMP-activated protein kinase catalytic subunit alpha-2 (Homo sapiens) (UniProt P54646); details: Compound concentration 100.0 nM
[43] = target: 5'-AMP-activated protein kinase catalytic subunit alpha-1 (Homo sapiens) (UniProt Q13131); details: Compound concentration 100.0 nM
[44] = tested on: Tyrosine-protein kinase ABL1 (Homo sapiens), P00519 [Y253F]; details: Compound concentration 100.0 nM
[45] = target: 5-hydroxytryptamine receptor 3A (Homo sapiens) (UniProt P46098); details: Compound concentration 10.0 uM

Cc1ccc(-c2cnc([C@@]3(O)CC[C@H](C(=O)O)C(C)(C)C3)s2)cc1Nc1cccc(C(F)(F)F)n1 [MRL-SYKi-NC]
residual activity [1]: 100%
residual activity [2]: 100%
residual activity [3]: 100%
residual activity [4]: 100%
residual activity [5]: 97.2%
inhibition [6]: -4.28%
residual activity [7]: 100%
residual activity [8]: 100%
residual activity [9]: 89.1%
residual activity [10]: 100%
residual activity [11]: 100%
residual activity [12]: 69.9%
residual activity [13]: 85%
residual activity [14]: 84.6%
residual activity [15]: 100%
residual activity [16]: 90.9%
residual activity [17]: 100%
residual activity [18]: 100%
residual activity [19]: 87.9%
residual activity [20]: 70.8%
residual activity [21]: 43.1%
residual activity [22]: 100%
residual activity [23]: 100%
residual activity [24]: 95.4%
residual activity [25]: 97%
residual activity [26]: 64.5%
residual activity [27]: 100%
residual activity [28]: 0%
residual activity [29]: 100%
residual activity [30]: 100%
residual activity [31]: 73.5%
residual activity [32]: 100%
residual activity [33]: 95.1%
inhibition [34]: 16.5%
residual activity [35]: 96.2%
residual activity [36]: 90%
residual activity [37]: 100%
residual activity [38]: 100%
residual activity [39]: 100%
residual activity [40]: 75.8%
residual activity [41]: 85.3%
residual activity [42]: 94.7%
residual activity [43]: 77.6%
residual activity [44]: 81.9%
inhibition [45]: -1.96%

Cc1cc(Nc2nccc(C)n2)cc(-c2cnc([C@@]3(O)CC[C@H](C(=O)O)C(C)(C)C3)s2)c1 [MRL-SYKi]
residual activity [1]: 100%
residual activity [2]: 100%
residual activity [3]: 100%
residual activity [4]: 100%
residual activity [5]: 100%
inhibition [6]: 0.943%
residual activity [7]: 76.1%
residual activity [8]: 65.9%
residual activity [9]: 99.9%
residual activity [10]: 100%
residual activity [11]: 100%
residual activity [12]: 79.9%
residual activity [13]: 80.5%
residual activity [14]: 77.7%
residual activity [15]: 100%
residual activity [16]: 100%
residual activity [17]: 100%
residual activity [18]: 100%
residual activity [19]: 100%
residual activity [20]: 100%
residual activity [21]: 100%
residual activity [22]: 84.8%
residual activity [23]: 92.6%
residual activity [24]: 53.9%
residual activity [25]: 100%
residual activity [26]: 30.2%
residual activity [27]: 93.2%
residual activity [28]: 100%
residual activity [29]: 100%
residual activity [30]: 100%
residual activity [31]: 83.5%
residual activity [32]: 92.3%
residual activity [33]: 100%
inhibition [34]: 2.65%
residual activity [35]: 100%
residual activity [36]: 100%
residual activity [37]: 94%
residual activity [38]: 90.5%
residual activity [39]: 100%
residual activity [40]: 77.4%
residual activity [41]: 85.9%
residual activity [42]: 100%
residual activity [43]: 100%
residual activity [44]: 100%
inhibition [45]: -3.85%
